Experimental data taken from patent publication US11249161B2, “Magnetic resonance method for detecting molecular binding with enhanced sensitivity” (The Johns Hopkins University, priority 2017, dated 2022).

Tests used:
[1] = target: bovine serum albumin (BSA) (Bos taurus, UniProt P02769)
Source text: (§1) Maps were generated by mapping the signal difference (pre minus post infusion) between the partial spectra (−1.0 to −2.0 ppm). Field correction for static field (B0) inhomogeneities was done by creating field maps from the low power Z-spectra acquired in our study and shifting the Z-spectra voxel wise according to the WASSR method^27.

mouse brain = assay: In vivo IMMOBILISE MRI in mice after caffeine infusion
Method: All experiments were performed in accordance with Institutional Animal Care and Use Committee guidelines and approved by the Johns Hopkins University Animal Care and Use Committee. Eight 6-8 week old female BALB/c mice, were anesthetized by isoflurane and kept warm with a heating pad and kept in place with a stereotactic holder. […] A home-built catheter was connected to a syringe infusion through PE-50 tubing.
MRI experiments were acquired on a 11.7 T Bruker Biospec preclinical scanner (Bruker, Ettlingen, Germany) equipped with a 72 mm quadrature volume resonator for RF transmission and a 2×2 mouse phased array coil for RF reception. The saturation preparation consisted of a 3 s, 0.5 μT CW saturation pulse followed by a two-shot FSE readout. The FSE readout parameters were TR/TE=6000/4 ms, a 64×64 acquisition matrix across a field of view of 17×17 mm and slice thickness of 1 mm. […] Acquisition of each partial Z-spectra took 105 s and was continued for 1-hour post bolus and then a complete Z-spectrum was again acquired.
as §1

Chain of bovine serum albumin (BSA) (P02769 25-607): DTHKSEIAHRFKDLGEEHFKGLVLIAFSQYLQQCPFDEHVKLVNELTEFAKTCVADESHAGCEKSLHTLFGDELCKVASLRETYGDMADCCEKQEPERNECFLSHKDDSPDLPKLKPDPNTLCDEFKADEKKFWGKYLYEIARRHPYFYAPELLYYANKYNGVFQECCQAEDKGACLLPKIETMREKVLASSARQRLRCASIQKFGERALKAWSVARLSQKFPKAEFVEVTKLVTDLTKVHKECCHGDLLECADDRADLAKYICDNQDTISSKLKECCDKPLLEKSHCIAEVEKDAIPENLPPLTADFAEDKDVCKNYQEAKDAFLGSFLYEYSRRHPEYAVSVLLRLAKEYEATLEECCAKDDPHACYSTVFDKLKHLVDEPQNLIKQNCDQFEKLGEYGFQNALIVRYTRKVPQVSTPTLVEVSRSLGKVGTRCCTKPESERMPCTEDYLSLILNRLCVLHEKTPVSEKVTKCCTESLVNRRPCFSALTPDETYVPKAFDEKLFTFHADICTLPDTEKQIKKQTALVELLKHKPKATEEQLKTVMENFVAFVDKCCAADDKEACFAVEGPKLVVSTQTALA

## Cn1c(=O)c2c(ncn2C)n(C)c1=O [caffeine]
[1]
  factor in sensitivity enhancement: ~1000
Mouse brain; 2 mL blood, 50 μL of 100 mM caffeine infused
  concentration of caffeine in mouse blood (estimate): about 2.5 mM
Mouse brain; mice, after caffeine infusion, about 2.5 mM in blood
  change in water signal (detection sensitivity): 1-3%
Mouse brain; mice, in vivo
  factor of enhancement: 30-100
